According to PubChem BioAssay AID248 (DTP/NCI, 2004):
Values joined by “and” are separate entries in the source; they are usually repeats but may differ in a detail not shown here. Equal entries are not always repeated. Inconclusive results and toxic doses are left out. Cut-off read from the data, not from the text of the source: active = T/C of 150% or more; inactive = T/C below 125%.

System: L1210 leukemia ip in BDF1 mice, survival T/C
Test: NCI In Vivo Anticancer Drug Screen. Data for tumor model L1210 Leukemia (intraperitoneal) in B6D2F1 (BDF1) mice
Details: endpoint: mean survival time, higher = longer survival
How it was run: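 Antitumor effect is assessed in tumor-bearing animals. Survival in the compound arm is compared with a vehicle-dosed control arm and expressed as their quotient.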

[1] = dose: 100.0 mg/kg/injection, schedule: Q01DX009 (ip), vehicle: Klucel (hydroxypropylcellulose) (HPC)
[2] = dose: 200.0 mg/kg/injection, schedule: Q01DX009 (ip), vehicle: Klucel (hydroxypropylcellulose) (HPC)
[3] = dose: 400.0 mg/kg/injection, schedule: Q01DX009 (ip), vehicle: Klucel (hydroxypropylcellulose) (HPC)
[4] = dose: 25.0 mg/kg/injection, schedule: Q04DX002 (ip), vehicle: saline with Tween-80
[5] = dose: 50.0 mg/kg/injection, schedule: Q04DX002 (ip), vehicle: saline with Tween-80
[6] = dose: 100.0 mg/kg/injection, schedule: Q01DX001 (ip), vehicle: carboxymethylcellulose (CMC)
[7] = dose: 100.0 mg/kg/injection, schedule: Q04DX003 (ip), vehicle: saline
[8] = dose: 200.0 mg/kg/injection, schedule: Q01DX001 (ip), vehicle: carboxymethylcellulose (CMC)
[9] = dose: 400.0 mg/kg/injection, schedule: Q01DX001 (ip), vehicle: carboxymethylcellulose (CMC)
[10] = dose: 12.5 mg/kg/injection, schedule: Q01DX009 (ip), vehicle: Klucel (hydroxypropylcellulose) (HPC)
[11] = dose: 100.0 mg/kg/injection, schedule: Q04DX002 (ip), vehicle: Klucel (hydroxypropylcellulose) (HPC)
[12] = dose: 200.0 mg/kg/injection, schedule: Q04DX002 (ip), vehicle: Klucel (hydroxypropylcellulose) (HPC)
[13] = dose: 400.0 mg/kg/injection, schedule: Q04DX002 (ip), vehicle: Klucel (hydroxypropylcellulose) (HPC)

Measured: T/C

S=c1[nH]c(=S)c2[nH]c(=S)[nH]c2[nH]1
inactive: [1] 91 % of control | [2] 93 % of control | [3] 95 % of control

CCCSP(=[Se])(CCC)c1ccccc1 (centres undefined)
inactive: [4] 97 % of control | [5] 97 % of control | dose: 100.0 mg/kg/injection, schedule: Q04DX002 (ip), vehicle: saline with Tween-80 101 % of control

CCOC(=O)Nc1ccccc1-c1ccccc1
inactive: dose: 100.0 mg/kg/injection, schedule: Q04DX002 (sc), vehicle: olive oil, sesame oil, peanut oil 94 % of control | dose: 200.0 mg/kg/injection, schedule: Q04DX002 (sc), vehicle: olive oil, sesame oil, peanut oil 105 % of control | dose: 400.0 mg/kg/injection, schedule: Q04DX002 (sc), vehicle: olive oil, sesame oil, peanut oil 97 % of control

CN(C)CCC(CN=C(N)N)c1cccc2ccccc12 (centres undefined)
inactive: dose: 12.5 mg/kg/injection, schedule: Q01DX009 (ip), vehicle: saline 100 % of control | dose: 25.0 mg/kg/injection, schedule: Q01DX009 (ip), vehicle: saline 100 % of control | dose: 25.0 mg/kg/injection, schedule: Q04DX002 (ip), vehicle: saline 93 % of control | dose: 50.0 mg/kg/injection, schedule: Q01DX009 (ip), vehicle: saline 101 % of control | dose: 50.0 mg/kg/injection, schedule: Q04DX002 (ip), vehicle: saline 97 % of control

CCCc1c(Cl)nc(Cl)nc1Cl
inactive: dose: 37.5 mg/kg/injection, schedule: Q01DX009 (ip), vehicle: acetone 111 % of control | dose: 66.0 mg/kg/injection, schedule: Q04DX003 (ip), vehicle: saline 104 % of control and 105 % of control | [6] 100 % of control | [7] 100 % of control and 104 % of control | dose: 150.0 mg/kg/injection, schedule: Q04DX003 (ip), vehicle: saline 106 % of control and 107 % of control | [8] 108 % of control | [9] 96 % of control

O=C(NNCc1ccccc1)c1ccccn1
inactive: [10] 102 % of control | dose: 25.0 mg/kg/injection, schedule: Q01DX009 (ip), vehicle: Klucel (hydroxypropylcellulose) (HPC) 94 % of control | dose: 50.0 mg/kg/injection, schedule: Q01DX009 (ip), vehicle: Klucel (hydroxypropylcellulose) (HPC) 97 % of control | [1] 94 % of control

CCCC[S][Hg][I]
inactive: dose: 3.12 mg/kg/injection, schedule: Q01DX009 (ip), vehicle: Klucel (hydroxypropylcellulose) (HPC) 98 % of control | dose: 6.25 mg/kg/injection, schedule: Q01DX009 (ip), vehicle: Klucel (hydroxypropylcellulose) (HPC) 98 % of control | [10] 110 % of control

CCC1SC(CC)(CC(C)C)C(=O)NC1=O (centres undefined)
inactive: [6] 102 % of control | [8] 94 % of control | [9] 94 % of control

O=C(c1ccccc1)c1nnc(C(=O)c2ccccc2)nn1
inactive: dose: 100.0 mg/kg/injection, schedule: Q04DX003 (ip), vehicle: Klucel (hydroxypropylcellulose) (HPC) 102 % of control | dose: 200.0 mg/kg/injection, schedule: Q04DX003 (ip), vehicle: Klucel (hydroxypropylcellulose) (HPC) 100 % of control | dose: 400.0 mg/kg/injection, schedule: Q04DX003 (ip), vehicle: Klucel (hydroxypropylcellulose) (HPC) 93 % of control

O=c1[nH]c(=O)n(CC(O)c2ccc(Cl)s2)cc1F (centres undefined)
inactive: dose: 100.0 mg/kg/injection, schedule: Q01DX009 (ip), vehicle: saline with Tween-80 100 % of control | dose: 100.0 mg/kg/injection, schedule: Q04DX003 (ip), vehicle: saline with Tween-80 100 % of control | dose: 200.0 mg/kg/injection, schedule: Q01DX009 (ip), vehicle: saline with Tween-80 101 % of control | dose: 200.0 mg/kg/injection, schedule: Q04DX003 (ip), vehicle: saline with Tween-80 96 % of control | dose: 400.0 mg/kg/injection, schedule: Q01DX009 (ip), vehicle: saline with Tween-80 95 % of control | dose: 400.0 mg/kg/injection, schedule: Q04DX003 (ip), vehicle: saline with Tween-80 97 % of control

OCCOc1ccc(Cl)cc1Cl
inactive: dose: 50.0 mg/kg/injection, schedule: Q01DX001 (ip), vehicle: other 101 % of control | dose: 75.0 mg/kg/injection, schedule: Q01DX009 (ip), vehicle: saline with Tween-80 101 % of control | dose: 100.0 mg/kg/injection, schedule: Q01DX001 (ip), vehicle: other 103 % of control | dose: 150.0 mg/kg/injection, schedule: Q01DX009 (ip), vehicle: saline with Tween-80 98 % of control | dose: 200.0 mg/kg/injection, schedule: Q01DX001 (ip), vehicle: other 103 % of control | dose: 300.0 mg/kg/injection, schedule: Q01DX009 (ip), vehicle: saline with Tween-80 109 % of control

O=C(O)CCC(=O)NCCNC(=O)CC(=O)O
inactive: dose: 100.0 mg/kg/injection, schedule: Q01DX001 (ip), vehicle: saline 100 % of control | dose: 200.0 mg/kg/injection, schedule: Q01DX001 (ip), vehicle: saline 105 % of control | dose: 400.0 mg/kg/injection, schedule: Q01DX001 (ip), vehicle: saline 100 % of control

C=C1CC2(CCC23COC(=O)C3=C)OC1=O (centres undefined)
inactive: dose: 1.56 mg/kg/injection, schedule: Q01DX001 (ip), vehicle: other 98 % of control | dose: 3.12 mg/kg/injection, schedule: Q01DX001 (ip), vehicle: other 102 % of control and 109 % of control | dose: 6.25 mg/kg/injection, schedule: Q01DX001 (ip), vehicle: other 105 % of control and 121 % of control | dose: 12.5 mg/kg/injection, schedule: Q01DX001 (ip), vehicle: other 102 % of control

S=C(Nc1ccc(Cl)c(Cl)c1)SCc1ccco1
inactive: dose: 30.0 mg/kg/injection, schedule: Q04DX003 (ip), vehicle: saline with Tween-80 101 % of control | dose: 60.0 mg/kg/injection, schedule: Q04DX003 (ip), vehicle: saline with Tween-80 101 % of control | dose: 120.0 mg/kg/injection, schedule: Q04DX003 (ip), vehicle: saline with Tween-80 101 % of control

O=C(O)CCCCSCCSCCCCC(=O)O
inactive: [1] 101 % of control | [2] 94 % of control | [3] 86 % of control

O=C1C=CC(=O)N1c1cccc2c(N3C(=O)C=CC3=O)cccc12
inactive: dose: 11.1 mg/kg/injection, schedule: Q01DX Z (ip), vehicle: methylcellulose (MC) 89 % of control | dose: 16.6 mg/kg/injection, schedule: Q01DX Z (ip), vehicle: methylcellulose (MC) 95 % of control | dose: 25.0 mg/kg/injection, schedule: Q01DX Z (ip), vehicle: methylcellulose (MC) 104 % of control

CCP1CCC(=NNC(N)=S)CC1 (centres undefined)
inactive: dose: 12.5 mg/kg/injection, schedule: Q04DX002 (ip), vehicle: saline with Tween-80 95 % of control | [4] 95 % of control | [5] 93 % of control

Cc1nccn1-c1ccc(Cl)cc1N=Cc1ccc(N(CCCl)CCCl)cc1
inactive: [11] 98 % of control | [12] 102 % of control | [13] 102 % of control

COc1ccc2c(C)c(Br)sc2c1
inactive: [6] 89 % of control | [8] 94 % of control | [9] 94 % of control

O=C1/C(=C\c2cccc3ccccc23)N2CCC1CC2
inactive: [11] 100 % of control | [12] 96 % of control | [13] 104 % of control

O=S(=O)(O)c1ccc(O)c2ncccc12
inactive: [7] 95 % of control | dose: 200.0 mg/kg/injection, schedule: Q04DX003 (ip), vehicle: saline 101 % of control | dose: 400.0 mg/kg/injection, schedule: Q04DX003 (ip), vehicle: saline 101 % of control

O=C(NCCCl)Nc1ncccn1
inactive: [6] 97 % of control | [8] 106 % of control | [9] 103 % of control

COc1cc2cc3c4cc(OC)c(OC)cc4cc[n+]3cc2cc1OC
inactive: dose: 10.0 mg/kg/injection, schedule: Q01DX009 (ip), vehicle: saline 92 % of control | dose: 20.0 mg/kg/injection, schedule: Q01DX009 (ip), vehicle: saline 116 % of control | dose: 40.0 mg/kg/injection, schedule: Q01DX009 (ip), vehicle: saline 118 % of control | dose: 80.0 mg/kg/injection, schedule: Q01DX009 (ip), vehicle: saline 110 % of control | dose: 160.0 mg/kg/injection, schedule: Q01DX009 (ip), vehicle: saline 113 % of control | dose: 320.0 mg/kg/injection, schedule: Q01DX009 (ip), vehicle: saline 93 % of control

Cc1nc(C)c(C(=O)O)cc1C(=O)O
inactive: dose: 100.0 mg/kg/injection, schedule: Q01DX009 (ip), vehicle: saline 104 % of control | dose: 200.0 mg/kg/injection, schedule: Q01DX009 (ip), vehicle: saline 101 % of control | dose: 400.0 mg/kg/injection, schedule: Q01DX009 (ip), vehicle: saline 100 % of control
